From patent US20050175535A1 (CV Therapeutics, Inc., priority 2000, published 2005)
Where two headings read alike, the source gives them in different places.

Key:
A2A adenosine receptors [1] = target: A2A adenosine receptors (Sus scrofa, UniProt K9IW67); test: Competitive radioligand binding, [3H]ZM241385, pig striatum membranes
Experimental: Membranes were also obtained from porcine striatial cells as follows. […] The homogenate was filtered through cotton gauze and centrifuged at 48,000g for 15 minutes at 4° C. […] The final pellet was frozen at −80° C. until used for receptor binding assays.

[2] = target: T1, human A1 adenosine receptors (Homo sapiens, UniProt P30542); test: Competitive radioligand binding, [3H]CPX, CHO-hA1AdoR membranes; conditions: [3H]CPX
T1 construct: expressed in transfected cells
T1 sequence (P30542 1-326): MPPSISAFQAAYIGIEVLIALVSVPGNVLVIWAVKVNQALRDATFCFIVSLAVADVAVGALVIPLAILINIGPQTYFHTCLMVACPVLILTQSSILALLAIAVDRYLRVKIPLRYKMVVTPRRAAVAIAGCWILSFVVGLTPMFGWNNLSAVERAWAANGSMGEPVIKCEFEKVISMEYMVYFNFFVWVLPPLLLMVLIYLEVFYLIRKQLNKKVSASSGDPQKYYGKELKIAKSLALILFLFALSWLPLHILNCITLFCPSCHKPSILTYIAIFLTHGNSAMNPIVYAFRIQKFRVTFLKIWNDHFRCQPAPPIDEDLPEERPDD
Experimental: The cell suspensions were homogenized and centrifuged at 48,000g for 15 minutes. The pellets were washed three times by re-suspension in ice-cold Tris-HCl buffer and centrifugation. The final pellet was re-suspended in Tris-HCl, aliquoted and frozen at −80° C. until used for receptor binding assays.

[3] = system: rat isolated perfused heart; test: Coronary conductance / coronary perfusion pressure in isolated perfused rat hearts; conditions: Rattus norvegicus
Experimental: Briefly, rats of either sex weighing 230-260 grams were anesthetized by intraperitoneal injection of a mixture of ketamine (100 mg/ml) and xylazine (20 mg/ml). The chest of each rat was opened and the heart removed, and rinsed in ice-cold modified Krebs-Henseleit (K-H) solution containing NaCl 117.9, KCl 4.5, CaCl2 2.5, MgSO4 1.18, KH2PO4 1.18, pyruvate 2.0 mmo/L. The aorta was cannulated and the heart was perfused at a flow rate of 10 ml/min with modified K-H solution. The K-H solution (pH 7.4) was gassed continuously with 95% O2 and 5% CO2 and warmed to 35±0.5° C. The heart was electrically paced at a fixed cycle length of 240 ms (250 beats/min) using a bipolar electrode placed in the left atrium. The electrical stimuli were generated by a Grass stimulator (Model S48, W. Warwick, R.I.) and delivered through a Stimuli Isolation Unit (Model SIU5, Astro-Med, Inc., NY) as square-wave pulses of 3-msec in duration and with an amplitude of at least twice the threshold intensity.
The identity of the adenosine receptor subtype (A1 or A2A) mediating the coronary vasodilation was determined.
Coronary perfusion pressure (CPP) was measured using a pressure transducer that was connected to the aortic cannula via a T-connector positioned approximately 3 cm above the heart. CPP was monitored throughout an experiment and recorded either on a chart recorder (Gould Recorder 2200S, Valley View, Ohio) or a computerized recording system (PowerLab/4S, ADInstruments Pty Ltd, Australia). Only hearts with CPP ranging from 60 to 85 mmHg (in the absence of drugs) were used in the study. CC conductance (in ml/min/mmHg) was calculated as the ratio between coronary perfusion rate (10 ml/min) and CPP.

[4] = system: rat isolated perfused heart; test: Reversal time of coronary vasodilation in rat isolated perfused hearts; conditions: bolus, rat isolated perfused heart;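 further: each agonist bolused at its minimal concentration giving equal maximal coronary conductance rise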
Experimental: FIG. 10. Reversal of effect of agonist stimulation on CC. […] CC was measured at 8, 16 and 24 minutes after administration (FIG. 10A). […] R and N are the correlation coefficient and number of agonists, respectively.
The relationship between the affinity of agonists for the A2A receptor and the rate of reversal of agonist-mediated responses (coronary vasodilation in heart and cAMP accumulation in PC12 cells) upon termination of drug administration were determined. […] The duration of the coronary vasodilation in isolated rat hearts caused by adenosine, the CVT compounds, and other agonists measured as the time to 50% and 90% (t0.5 and t0.9, respectively) reversal of the increases in coronary conductance after termination of drug administration are summarized in Table 4.

[5] = target: T2, A2A adenosine receptors (PC12 cells) (Rattus norvegicus, UniProt P30543); test: cAMP accumulation in PC12 cells
T2 sequence (P30543 whole entry): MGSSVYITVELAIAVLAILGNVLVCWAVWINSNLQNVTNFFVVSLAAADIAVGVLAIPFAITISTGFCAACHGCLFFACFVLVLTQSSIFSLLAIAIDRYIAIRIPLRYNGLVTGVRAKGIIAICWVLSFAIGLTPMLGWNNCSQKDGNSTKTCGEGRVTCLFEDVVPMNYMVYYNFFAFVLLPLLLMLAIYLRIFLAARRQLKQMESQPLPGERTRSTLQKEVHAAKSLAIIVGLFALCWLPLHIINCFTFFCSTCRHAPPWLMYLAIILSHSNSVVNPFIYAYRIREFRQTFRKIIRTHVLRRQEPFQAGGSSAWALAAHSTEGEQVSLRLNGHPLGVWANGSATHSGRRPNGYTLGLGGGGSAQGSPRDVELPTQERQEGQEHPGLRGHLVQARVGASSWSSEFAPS
Experimental: Effects of adenosine receptor agonists on cAMP content in intact PC12 cells. […] Cyclic AMP levels were determined as described under “Methods”. Values represent mean±SEM of results of triplicate samples from three experiments. […] Values represent mean±SEM of triplicate determinants from one representative experiment.
Briefly, PC12 cells were rinsed three times with Hanks' balanced saline solution (HBSS), detached using a cell lifter, and pelleted by centrifugation at 500 g for 5 minutes. Aliquots of the cell suspension (0.1 to 0.2 mg protein) were placed in microfuge tubes with 250 μL of HBSS containing rolipram (50 μmol/L) to inhibit phosphodiesterases that degrade cAMP_and warmed to 37° C. Appropriate drugs were added to the cell suspensions, and incubations were allowed to continue for 10 minutes. Tubes were placed in a boiling water bath for 5 minutes to terminate the incubation. The samples were then cooled to room temperature, diluted by the addition of 1 mL of 10 mmol/L Tris-HCl buffer at pH 7.4, and then centrifuged for 2 minutes at 13000 g.
The samples were then incubated at 4° C. for 16 hours. At the end of the incubation, 70 μL of a 50% (wt/vol) hydroxyapatite suspension was added to each tube. The suspensions were gently agitated and then incubated for 10 minutes at 4° C. Antibody-bound radioactivity adsorbed to hydroxyapatite was collected onto glass fiber filters by vacuum filtration using a Brandel cell harvester. Radioactivity retained by the filter was counted in a gamma counter. […] The amount of cAMP present in samples was calculated based on a standard curve using known amounts of cAMP.

A2A adenosine receptors [6] = target: A2A adenosine receptors (Rattus norvegicus, UniProt P30543); test: Competitive radioligand binding, [3H]ZM241385, PC12 cell membranes; conditions: PC12 cells (A2A)
Sequence of A2A adenosine receptors (Rattus norvegicus, UniProt P30543) (P30543 whole entry): as above

[7] = target: human A2A adenosine receptors (Homo sapiens, UniProt P29274); test: Competitive radioligand binding, [3H]ZM241385, HEK-hA2AAdoR membranes; conditions: HEK-hA2AAdoR
Sequence of human A2A adenosine receptors (P29274 whole entry): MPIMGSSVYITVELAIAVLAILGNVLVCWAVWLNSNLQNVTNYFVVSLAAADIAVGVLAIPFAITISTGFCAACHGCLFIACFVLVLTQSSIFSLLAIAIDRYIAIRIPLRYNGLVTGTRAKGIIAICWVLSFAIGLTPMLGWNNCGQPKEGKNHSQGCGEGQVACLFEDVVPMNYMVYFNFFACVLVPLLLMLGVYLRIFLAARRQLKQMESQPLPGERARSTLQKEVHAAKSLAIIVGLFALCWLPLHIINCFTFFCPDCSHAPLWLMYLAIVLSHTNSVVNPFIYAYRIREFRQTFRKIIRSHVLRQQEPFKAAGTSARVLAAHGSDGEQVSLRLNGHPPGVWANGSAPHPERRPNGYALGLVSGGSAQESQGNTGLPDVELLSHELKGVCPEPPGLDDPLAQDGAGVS
Experimental: Each point represents the mean±SEM of triplicates pooled from at least three experiments.
ZM241385 was purchased from Tocris Cookson Ltd (Langford, Bristol, UK).
Competitive radiolabeling binding assays were performed to determine the binding affinities of the compounds of the invention for the adenosine receptor subtypes, A1, A2A, A2B and A3. Briefly, membrane suspensions, obtained from cells expressing either adenosine receptor subtypes A1, A2A, A2B or A3were incubated for 2 hours at room temperature in 50 mmol/L Tris-HCl buffer (pH 7.4) containing ADA (1U/mL). […] At the end of the incubation, free radioligand was separated from membrane-bound radioligand by filtration through Whatman GF/C glass fiber filters using a Brandel tissue harvester (Gaithersburg, Md.). Triplicate determinations were performed for each concentration of unlabelled compound.

[8] = target: T2, A2A adenosine receptors (PC12 cells); test: Rate of decline of agonist-stimulated cAMP in PC12 cells after A2A antagonist SCH58261; conditions: agonist 1 μM, after addition of SCH58261 (20 μM)
[9] = Coronary blood flow and reversal time, intracoronary infusion in open-chest anesthetized pigs; type: in vivo
Experimental: The magnitude of the effect of A2A adenosine receptor agonists on coronary dilation and the duration of the effect was determined in pigs weighing 22-27 kg. […] In addition, animals were used in accordance with the guidelines of the University of Kentucky Institutional Animal Care and Use Protocol.
Anesthesia was maintained with additional sodium pentobarbital (1.5-2 mg/kg, i.v.) every 15-20 minutes. Animals were ventilated via a tracheotomy tube using a mixture of room air and 100% O2. Tidal volume, respiratory rate and fraction of O2 in inspired air were adjusted to maintain arterial blood gas (ABG) and pH values. […] Lactate Ringers solution was administered via an ear or femoral vein as an initial bolus of 300-400 ml followed by a continuous infusion at a rate of 5-7 ml/kg/hr. A catheter was inserted into the femoral artery to monitor arterial blood pressure.
The heart was exposed through a median sternotomy and suspended in a pericardial cradle. Left ventricular pressure (LVP) was measured with a 5F high fidelity pressure sensitive tip transducer (Millar Instruments, Houston, Tex.) placed in the left ventricular cavity via an apical incision and secured with a purse string suture. A segment of the left anterior descending coronary artery (LAD), proximal to the origin of the first diagonal branch, was dissected free of surrounding tissue. A transit time perivascular flow probe (Transonic Systems Inc., Ithaca, N.Y.) was placed around this segment to measure CBF. Proximal to the flow probe, a 24-gauge modified angiocatheter was inserted for intracoronary infusions. […] The A2A adenosine receptors agonists were administered intracoronary.
Relationship between affinity of various agonists for A2A adenosine receptor and the reversal time of their effect to increase coronary conductance was determined in pigs. Each experiment was preceded by a 30-minute stabilization period following the completion of all instrumentation of the animal. Baseline hemodynamic data were then recorded and an intracoronary infusion of an A2A Adenosine receptors agonist was initiated. Each infusion was maintained for 4-5 minutes to allow LAD CBF to reach a steady-state, after which the infusion was terminated. The times to recovery of CBF by 50% (t0.5) and 90% (t0.9) of the difference from peak effect to baseline CBF were recorded. Ten to 15 minutes after CBF returned to pre-drug values a second infusion with a different agonist was started. […] Hemodynamic measurements were made prior to and following the initiation of the phenylephrine infusion. The phenylephrine infusion rate was adjusted during and following the infusions of the adenosine receptor agonists to maintain arterial blood pressure within 5 mmHg of pre-infusion values. The effect of a maximum of three different agonists was determined in each experiment.

[10] = [3H]ZM241385, Gpp(NH)p present, read-out: Ki, Pig Strialum (A2A)
[11] = read-out: pKi ± SEM, CHO-hA1AdoR (converted)
[12] = read-out: EC50, Coronary Conductance (Rat Isolated Heart)
[13] = read-out: pEC50 ± SEM, Coronary Conductance (Rat Isolated Heart) (converted)

Sequence of A2A adenosine receptors (Sus scrofa, UniProt K9IW67) (K9IW67 1-409): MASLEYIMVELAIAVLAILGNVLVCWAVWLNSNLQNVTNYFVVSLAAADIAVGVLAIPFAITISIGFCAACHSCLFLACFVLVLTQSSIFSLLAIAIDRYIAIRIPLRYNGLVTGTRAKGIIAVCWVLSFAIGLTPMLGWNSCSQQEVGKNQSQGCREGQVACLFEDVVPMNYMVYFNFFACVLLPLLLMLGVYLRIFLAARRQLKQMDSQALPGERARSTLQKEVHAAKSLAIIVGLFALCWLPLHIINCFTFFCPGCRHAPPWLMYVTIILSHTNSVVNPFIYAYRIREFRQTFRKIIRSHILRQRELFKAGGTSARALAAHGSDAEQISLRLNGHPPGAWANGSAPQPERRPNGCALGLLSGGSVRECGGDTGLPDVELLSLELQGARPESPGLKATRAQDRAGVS

Row | Ki (A2A adenosine receptors [1]; [10]) [nM] | Ki ([2]; read-out: Ki, CHO-hA1AdoR) [nM] | Ki [2, 11] [nM] | EC50 [3, 12] [nM] | EC50 [3, 13] [nM] | Compound | t0.5, time to 50% reversal of the increase in coronary conductance [4] [min] | t0.9, time to 90% reversal of the increase in coronary conductance [4] [min] | Ki (A2A adenosine receptors [6]; Ki) [nM] | other results
1 | 14.4 | 866 | 851 | 0.68 | 0.676 | Nc1nc(C#CCOc2ccccc2)nc2c1ncn2C1O[C@@H](CO)[C@H](O)[C@@H]1O (stereo partly drawn) [CVT-2995] | 17.5 ± 1.2 | 23.2 ± 2.1 | – | Ki (A2A adenosine receptors [1]; [3H]ZM241385, Gpp(NH)p present, read-out: pKi ± SEM, Pig Strialum (A2A) (converted)): 13.8 nM; EC50 ([5]; EC50, cAMP Accumulation (PC12 cells)): 6.6 nM; EC50 ([5]; pEC50 ± SEM, cAMP Accumulation (PC12 cells)): 1.51 nM; Ki (A2A adenosine receptors [6]; Ki, [3H]ZM241385): 53 nM; Ki ([7]; Ki, [3H]ZM241385): 305 nM; Ki ([7]; pKi ± SEM, [3H]ZM241385): 302 nM; t0.5, rate of decline of cAMP accumulated [8]: 3.9 ± 0.6 min
2 | 1590 | 6350 | 6030 | 66.5 | 66.1 | Nc1nc(-c2cnn(Cc3ccccc3)c2)nc2c1ncn2C1O[C@@H](CO)[C@H](O)[C@@H]1O (stereo partly drawn) [CVT-3032] | 4.1 ± 0.3 | 9.8 ± 1.4 | 5520 | CBF (fold-increase) ([9]; 30 ug/kg/min intracoronary): 3.78 ± 0.70 fold; t0.5 reversal of increase in coronary blood flow ([9]; 30 ug/kg/min intracoronary): 2.3 ± 0.6 min; t0.9 reversal of increase in coronary blood flow ([9]; 30 ug/kg/min intracoronary): 9.6 ± 1.0 min; EC50 [5]: 613 nM; agonist behaviour in PC12 cells [5]: partial A2A agonists; Emax ([5]; PC-12, read-out: maximal response of cAMP accumulation, % of that induced by CGS21680): 65%; Ki ([7]; Ki): 13700 nM; Ki ([7]; pKi ± SEM): 13500 nM

Row | Compound | Ki (A2A adenosine receptors [1]; [10]) [nM] | Ki ([2]; read-out: Ki, CHO-hA1AdoR) [nM] | Ki [2, 11] [nM] | EC50 [3, 12] [nM] | EC50 [3, 13] [nM] | t0.5, time to 50% reversal of the increase in coronary conductance [4] [min] | t0.9, time to 90% reversal of the increase in coronary conductance [4] [min] | Ki (A2A adenosine receptors [6]; Ki) [nM] | other results
3 | Nc1nc(N/N=C/C2CCCCC2)nc2c1ncn2[C@@H]1O[C@H](CO)[C@@H](O)[C@H]1O [WRC0470, 2-cyclohexylmethylidenehydrazinoadenosine, reference compound] | – | 7280 | 6920 | 0.62 | 0.646 | – | – | 18 | Ki (A2A adenosine receptors [1]): 20.7 nM; t0.5 reversal of increase in coronary blood flow ([9]; 1 ug/kg/min intracoronary): 9.5 ± 0.8 min; t0.9 reversal of increase in coronary blood flow ([9]; 1 ug/kg/min intracoronary): 22.5 ± 1.6 min; Ki (A2A adenosine receptors [6]; pKi ± SEM): 17 nM
